Assay results: patent publication US12054509B2, “Antimicrobial compounds, compositions, and uses thereof” (Lakewood Amedex, Inc., priority 2017, dated 2024)

Experiments:
Format in all cases: cell-based
E. coli ATCC 25922 = experiment: Bacterial cytological profiling (Example 6), E. coli;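 for effect on cell envelope: tested at 1 0.5 and 0.25 times MIC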
Description: (§1) This bacterial cytological profiling (BCP) study uses methods and materials described previously by Nonejuie, P., Burkart, M., Poglianoa, K., Pogiano, J. (2013). Bacterial cytological profiling rapidly identifies the cellular pathways targeted by antibacterial molecules. Proc. Natl. Acad. Sci. U.S.A. 110(40):16169-16174. doi: 10.1073/pnas.1311066110.
(§2) Wild type strains of E. coli ATCC 25922 or P. aeruginosa K2732 are grown in rich media (unbuffered 2× Lysogeny broth [LB]) at 30 C to an OD600˜0.4. These cultures are then split and each sample treated with the appropriate concentration of Nu-8 in unbuffered or buffered LB (final mixture OD600˜0.1). Cells exposed without Nu-8 are buffered to pH 4 with phosphoric acid.
(§3) The BCP is performed in LB media buffered to pH 4. The minimum inhibitory concentration (MIC) is measured for Nu-3, Nu-4, Nu-5, and Nu-8 against each bacterial strain. As one of ordinary skill in the art understands, minimum inhibitory concentrations are the lowest concentration of an antimicrobial that will inhibit the visible growth of a microorganism after overnight incubation. […] Cellular viability is assayed at three time points (5 minutes and 4 and 24 h following the onset of treatment).
(§4) For imaging E. coli, treated cells are stained with 1 μg/Ml FM4-64, 2 μg/mL DAPI, and 0.5 μM SYTOXGreen (Molecular Probes/Invitrogen). P. aeruginosa samples are stained 0.5 μM SYTOX Green, 28 μg/mL DAPI, and 4.5 μg/mL FM 4-64. Cells are transferred to an agarose pad (20% LB, 1% agarose) for imaging as described in Pogliano, J., Osborne, N., Sharp, M. D., Abanes-De Mello, A., Perez, A., Sun, Y.-L. and Pogliano, K. (1999), A vital stain for studying membrane dynamics in bacteria: a novel mechanism controlling septation during Bacillus subtilis sporulation. Molecular Microbiology, 31: 1149-1159. doi:10.1046/j.1365-2958.1999.01255.x.

P. aeruginosa K2732 = experiment: Bacterial cytological profiling (Example 6), P. aeruginosa;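 for effect on cell envelope: tested at 1 0.5 and 0.25 times MIC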
Description: as §1, §2, §3, §4

[1] = system: wild type E. coli (ATCC 25922); experiment: Bacterial cytological profiling at pH 4, 5.5, 7 (Example 8), E. coli; conditions: pH 5.5 and 7
Description: as §1, with “investigation” for “study”
(§5) For viable cell counts, cells are grown to OD600≈0.4 and diluted 1:1 into buffered or unbuffered media containing various compound concentrations. Samples are then collected and serially diluted (1:10) on a 96 well plate. Five microliters from each well are spotted on LB plates, incubated at 30° C., and viable cells are counted the next day.
(§6) Samples are collected at 10, 30, 120, and 240 min of exposure for viable cell count and imaging. For imaging, E. coli and S. aureus 200 μL of treated cells per time point are stained with 0.8 μg/mL FM4-64, 1.5 μg/mL DAPI, and 0.4 μM SYTOXGreen (Molecular Probes/Invitrogen). P. aeruginosa samples are stained 0.4 μM SYTOX Green, 28 μg/mL DAN, and 1 μg/mL FM 4-64. Cells are transferred to an agarose pad (20% LB, 1% agarose) for imaging.
(§7) For Nu-3 and Nu-8 stocks (at pH 4, 5.5 and 7), stock concentration is 500 mg/mL. For pH 4, the stocks are prepared by dissolving Nu-3 in 25 mM citrate buffer and Nu-8 in 350 mM citric acid. For pH 5.5, the stocks are prepared by dissolving Nu-3 in 25 mM citric-phosphate and Nu-8 in 25 mM critic. For pH 7, the stocks are prepared by dissolving Nu-3 and Nu-8 in 25 mM Sorensen phosphate buffer. 2×LB (lysogeny broth) solutions are prepared with 50 mM citrate buffer for pH 4, 50 mM citrate-phosphate buffer for pH 5.5, and 50 mM Sorensen phosphate buffer for pH 7.

[2] = system: wild type P. aeruginosa (PAO1; K2732); experiment: Bacterial cytological profiling at pH 4, 5.5, 7 (Example 8), P. aeruginosa
Description: as §1, with “investigation” for “study”
as §5, §6, §7

[3] = system: methicillin susceptible S. aureus (ATCC 29213); experiment: Bacterial cytological profiling at pH 4, 5.5, 7 (Example 8), S. aureus; conditions: for cell permeability / cell viability: pH 4
Description: as §1, with “investigation” for “study”
as §5, §6, §7

Citrobacter species = experiment: MIC at pH 3.5 (CLSI, Mueller-Hinton broth); conditions: 5 isolates
Description: (§8) Bacterial strains evaluated in this study include Escherichia coli, Klebsiella spp, Serratia marcescens, Proteus mirabilis/vulgaris, Citrobacter spp, Providencia spp, Morganella morganii, Pseudomonas aeruginosa, Staphylococcus aureus (MRSA only), and Enterococcus faecalis. Nu-8 test solutions are adjusted to pH 3.5 with citric acid, and MIC is evaluated per the CLSI methods in Mueller-Hinton broth supplemented accordingly to facilitate growth of specific strains.

Enterococcus faecalis = experiment: MIC at pH 3.5 (CLSI, Mueller-Hinton broth); conditions: 5 isolates
Description: as §8

Escherichia coli = experiment: MIC at pH 3.5 (CLSI, Mueller-Hinton broth); conditions: 5 isolates
Description: as §8

Klebsiella pneumoniae = experiment: MIC at pH 3.5 (CLSI, Mueller-Hinton broth); conditions: 5 isolates
Description: as §8

Morganella morganii = experiment: MIC at pH 3.5 (CLSI, Mueller-Hinton broth); conditions: 5 isolates
Description: as §8

[4] = system: Proteus mirabilis/vulgaris; experiment: MIC at pH 3.5 (CLSI, Mueller-Hinton broth); conditions: 5 isolates
Description: as §8

Providencia species = experiment: MIC at pH 3.5 (CLSI, Mueller-Hinton broth); conditions: 5 isolates
Description: as §8

Pseudomonas aeruginosa = experiment: MIC at pH 3.5 (CLSI, Mueller-Hinton broth); conditions: 20 isolates
Description: as §8

Serratia marcescens = experiment: MIC at pH 3.5 (CLSI, Mueller-Hinton broth); conditions: 5 isolates
Description: as §8

[5] = system: Staphylococcus aureus (MRSA); experiment: MIC at pH 3.5 (CLSI, Mueller-Hinton broth); conditions: 20 isolates
Description: as §8

SMILES: CCCCOP(=O)(O)OC[C@H]1O[C@@H](n2ccc(N)nc2=O)C[C@@H]1OP(=O)(O)OCCCC [Nu-8, sodium ((2R,3S,5R)-5-(4-amino-2-oxopyrimidin-1(2H)-yl)-3-((butoxyoxidophosphor-yl)oxy)tetrahydrofuran-2-yl)methyl butyl phosphate]
- effect on cell envelope (E. coli ATCC 25922; BCP): affect the cell envelope
- cell membrane permeability (E. coli ATCC 25922; buffered pH 4 or unbuffered LB): increase cell membrane permeability
- DNA condensation (E. coli ATCC 25922; higher treatment concentrations, buffered pH 4): causes DNA condensation
- effect on cell envelope (P. aeruginosa K2732; BCP): affect the cell envelope
- cell membrane permeability (P. aeruginosa K2732; buffered pH 4 or unbuffered LB): increase cell membrane permeability
- effect on cell permeability, viability and growth [1]: alters E. coli cell permeability and reduces cell viability and growth
- cell growth ([2]; pH 5.5 and 7, 112.5 mg/mL): reduction in cell growth
- increase/change in cell permeability ([2]; pH 5.5 and 7, 112.5 mg/mL): < 20%
- cell permeability ([2]; pH 7, 225 mg/mL, 10 min): ~37%
- cell permeability ([3]; 125 mg/mL): < 4.3%
- cell viability ([3]; 125 mg/mL, by 240 min, from 10^7.5 CFU/mL at study start): 10^3 CFU/mL
- cell permeability ([3]; 250 mg/mL): ~60%
- cell viability ([3]; 250 mg/mL, within 10 min): ~10^4 CFU/mL
- cell growth ([3]; pH 5.5 and 7, 125 mg/mL and 250 mg/mL, up to 24 h): slightly reduce cell growth
- MIC (Citrobacter species): 18.8 to 37.5 mg/mL
- MIC (Enterococcus faecalis): 4.69 to 18.8 mg/mL
- MIC (Escherichia coli): 37.5 mg/mL
- MIC (Klebsiella pneumoniae): 37.5 to 75 mg/mL
- MIC (Morganella morganii): 18.8 mg/mL
- MIC [4]: 4.69 to 18.8 mg/mL
- MIC (Providencia species): 9.38 to 37.5 mg/mL
- MIC (Pseudomonas aeruginosa): 9.38 to 18.8 mg/mL
- MIC50 (Pseudomonas aeruginosa): 18.8 mg/mL
- MIC90 (Pseudomonas aeruginosa): 18.8 mg/mL
- MIC (Serratia marcescens): 37.5 to 75 mg/mL
- MIC [5]: 9.38 to 37.5 mg/mL
- MIC50 [5]: 18.8 mg/mL
- MIC90 [5]: 37.5 mg/mL
